Data on four compounds can be found in the NIST ThermoML archive (doi:10.1016/j.jct.2016.04.021).

± gives the expanded uncertainty stated by the source.

For one series the following is noted: 328.15 K; 101.33 kPa; Liquid; Vibrating tube method.
Take `CCCCCCCC/C=C\CCCCCCCC(=O)[O-].CCCCCCCC[N+](CCCCCCCC)(CCCCCCCC)CCCCCCCC` [tetraoctylammonium oleate]: the mass density was 857.1 ± 7.2 kg/m3.

The same series, now with this note: 333.15 K; 101.33 kPa; Liquid; Concentric cylinders viscometry.
As for `CCCCC(CC)CCC(=O)[O-].CCCCCCCC[N+](C)(CCCCCCCC)CCCCCCCC` [methyltrioctylammonium 4-ethyloctanoate], the viscosity stood at 324.9 ± 42 mPa·s.

In the case of `CCCCCCCC/C=C\CCCCCCCC(=O)[O-].CCCCCCCC[N+](C)(CCCCCCCC)CCCCCCCC` [methyltrioctylammonium oleate], the viscosity was 227.9 ± 15 mPa·s.

On to `CCCCCCCC/C=C\CCCCCCCC(=O)[O-].CCCCCC[N+](CCCCCC)(CCCCCC)CCCCCC` [tetrahexylammonium oleate], for which the viscosity turned out to be 165.4 ± 10 mPa·s.

For the compound `CCCCCCCC/C=C\CCCCCCCC(=O)[O-].CCCCCCCC[N+](CCCCCCCC)(CCCCCCCC)CCCCCCCC` [tetraoctylammonium oleate], the viscosity is given as 146.2 ± 9.5 mPa·s.

The same series, now with this note: 333.15 K; 101.33 kPa; Liquid; Vibrating tube method.
On to `CCCCC(CC)CCC(=O)[O-].CCCCCCCC[N+](C)(CCCCCCCC)CCCCCCCC` [methyltrioctylammonium 4-ethyloctanoate], for which the mass density is reported as 868.8 ± 17 kg/m3.

In the case of `CCCCCCCC/C=C\CCCCCCCC(=O)[O-].CCCCCCCC[N+](C)(CCCCCCCC)CCCCCCCC` [methyltrioctylammonium oleate], the mass density is listed as 866.6 ± 7.3 kg/m3.

For `CCCCCCCC/C=C\CCCCCCCC(=O)[O-].CCCCCC[N+](CCCCCC)(CCCCCC)CCCCCC` [tetrahexylammonium oleate], the mass density was 865.8 ± 5.4 kg/m3.

As for `CCCCCCCC/C=C\CCCCCCCC(=O)[O-].CCCCCCCC[N+](CCCCCCCC)(CCCCCCCC)CCCCCCCC` [tetraoctylammonium oleate], the mass density turned out to be 854.1 ± 7.2 kg/m3.

The series is the same for the next values; noted with them: 338.15 K; 101.33 kPa; Liquid; Concentric cylinders viscometry.
Turning to `CCCCC(CC)CCC(=O)[O-].CCCCCCCC[N+](C)(CCCCCCCC)CCCCCCCC` [methyltrioctylammonium 4-ethyloctanoate], the viscosity was 246.3 ± 32 mPa·s.

Consider `CCCCCCCC/C=C\CCCCCCCC(=O)[O-].CCCCCCCC[N+](C)(CCCCCCCC)CCCCCCCC` [methyltrioctylammonium oleate], for which the viscosity came to 179.2 ± 12 mPa·s.

On to `CCCCCCCC/C=C\CCCCCCCC(=O)[O-].CCCCCC[N+](CCCCCC)(CCCCCC)CCCCCC` [tetrahexylammonium oleate], for which the viscosity was 129.5 ± 8.2 mPa·s.

Consider `CCCCCCCC/C=C\CCCCCCCC(=O)[O-].CCCCCCCC[N+](CCCCCCCC)(CCCCCCCC)CCCCCCCC` [tetraoctylammonium oleate], for which the viscosity is listed as 117 ± 7.5 mPa·s.

The series is the same for the next values; noted with them: 338.15 K; 101.33 kPa; Liquid; Vibrating tube method.
Consider `CCCCC(CC)CCC(=O)[O-].CCCCCCCC[N+](C)(CCCCCCCC)CCCCCCCC` [methyltrioctylammonium 4-ethyloctanoate], for which the mass density came to 865.8 ± 17 kg/m3.

With `CCCCCCCC/C=C\CCCCCCCC(=O)[O-].CCCCCCCC[N+](C)(CCCCCCCC)CCCCCCCC` [methyltrioctylammonium oleate], the mass density is 863.6 ± 7.3 kg/m3.

As for `CCCCCCCC/C=C\CCCCCCCC(=O)[O-].CCCCCC[N+](CCCCCC)(CCCCCC)CCCCCC` [tetrahexylammonium oleate], the mass density stood at 862.9 ± 5.3 kg/m3.

For the compound `CCCCCCCC/C=C\CCCCCCCC(=O)[O-].CCCCCCCC[N+](CCCCCCCC)(CCCCCCCC)CCCCCCCC` [tetraoctylammonium oleate], the mass density amounted to 851.1 ± 7.2 kg/m3.

The same series, now with this note: 343.15 K; 101.33 kPa; Liquid; Concentric cylinders viscometry.
Consider `CCCCC(CC)CCC(=O)[O-].CCCCCCCC[N+](C)(CCCCCCCC)CCCCCCCC` [methyltrioctylammonium 4-ethyloctanoate], for which the viscosity turned out to be 189.2 ± 24 mPa·s.

As for `CCCCCCCC/C=C\CCCCCCCC(=O)[O-].CCCCCCCC[N+](C)(CCCCCCCC)CCCCCCCC` [methyltrioctylammonium oleate], the viscosity is 142.7 ± 9.2 mPa·s.

As to `CCCCCCCC/C=C\CCCCCCCC(=O)[O-].CCCCCC[N+](CCCCCC)(CCCCCC)CCCCCC` [tetrahexylammonium oleate], the viscosity amounted to 102.9 ± 6.4 mPa·s.

On to `CCCCCCCC/C=C\CCCCCCCC(=O)[O-].CCCCCCCC[N+](CCCCCCCC)(CCCCCCCC)CCCCCCCC` [tetraoctylammonium oleate], for which the viscosity was 94.9 ± 6.1 mPa·s.

Still in this series, the particulars now being: 343.15 K; 101.33 kPa; Liquid; Vibrating tube method.
Take `CCCCC(CC)CCC(=O)[O-].CCCCCCCC[N+](C)(CCCCCCCC)CCCCCCCC` [methyltrioctylammonium 4-ethyloctanoate]: the mass density worked out at 862.8 ± 17 kg/m3.

On to `CCCCCCCC/C=C\CCCCCCCC(=O)[O-].CCCCCCCC[N+](C)(CCCCCCCC)CCCCCCCC` [methyltrioctylammonium oleate], for which the mass density is 860.7 ± 7.3 kg/m3.

For `CCCCCCCC/C=C\CCCCCCCC(=O)[O-].CCCCCC[N+](CCCCCC)(CCCCCC)CCCCCC` [tetrahexylammonium oleate], the mass density came out at 859.9 ± 5.3 kg/m3.

For the compound `CCCCCCCC/C=C\CCCCCCCC(=O)[O-].CCCCCCCC[N+](CCCCCCCC)(CCCCCCCC)CCCCCCCC` [tetraoctylammonium oleate], the mass density is on record as 848.2 ± 7.2 kg/m3.

The series is the same for the next values; noted with them: 348.15 K; 101.33 kPa; Liquid; Concentric cylinders viscometry.
Consider `CCCCC(CC)CCC(=O)[O-].CCCCCCCC[N+](C)(CCCCCCCC)CCCCCCCC` [methyltrioctylammonium 4-ethyloctanoate], for which the viscosity is recorded as 147.4 ± 19 mPa·s.

Consider `CCCCCCCC/C=C\CCCCCCCC(=O)[O-].CCCCCCCC[N+](C)(CCCCCCCC)CCCCCCCC` [methyltrioctylammonium oleate], for which the viscosity turned out to be 114.3 ± 7.3 mPa·s.

Take `CCCCCCCC/C=C\CCCCCCCC(=O)[O-].CCCCCC[N+](CCCCCC)(CCCCCC)CCCCCC` [tetrahexylammonium oleate]: the viscosity is 82.8 ± 5.1 mPa·s.

On to `CCCCCCCC/C=C\CCCCCCCC(=O)[O-].CCCCCCCC[N+](CCCCCCCC)(CCCCCCCC)CCCCCCCC` [tetraoctylammonium oleate], for which the viscosity was determined as 77.9 ± 4.9 mPa·s.

The same series, now with this note: 348.15 K; 101.33 kPa; Liquid; Vibrating tube method.
Take `CCCCC(CC)CCC(=O)[O-].CCCCCCCC[N+](C)(CCCCCCCC)CCCCCCCC` [methyltrioctylammonium 4-ethyloctanoate]: the mass density was found to be 859.8 ± 17 kg/m3.

Take `CCCCCCCC/C=C\CCCCCCCC(=O)[O-].CCCCCCCC[N+](C)(CCCCCCCC)CCCCCCCC` [methyltrioctylammonium oleate]: the mass density came out at 857.8 ± 7.3 kg/m3.

By mass density is commonly meant the mass of a sample divided by its volume. What is called viscosity is the resistance of a fluid to flow.
